Laboratory results reported in patent US20080194544A1, “AQUEOUS FORMULATIONS OF EPINASTINE FOR TREATING ALLERGIC RHINITIS” (priority 2007, published 2008).

Conditions: intranasal 0.05% or 0.1% spray
Procedure: Each group started with approximately 190 subjects.
The plasma samples from 43 subjects included in this clinical trial were collected for pharamacokinetic analysis following the first dose (Day 1) and the last dose (Day 14). Plasma epinastine levels following intranasal administration were determined.

**Q.** For NC1=NCC2c3ccccc3Cc3ccccc3N12 (centres unmarked) [epinastine, 3-amino-9,13b-dihydro-1H-dibenz-[c,-f]imidazol[1,5-a]azepine], which “dose proportionality of plasma epinastine concentrations” value is on record?
**A.** generally proportional to the nasal dose administered

**Q.** What about the “plasma concentrations of epinastine” value (after first dose (Day 1) and last dose (Day 14), 43 subjects) of the same molecule?
**A.** < 1 ng/mL
